Experimental data taken from ChEMBL document CHEMBL5241136, “Design, synthesis and evaluation of heterocyclic 2-phenylacetate derivatives as water-soluble rapid recovery hypnotics” (Bioorg Med Chem Lett, 2023).

Columns and labels:
[1] = n-Octanol/water partition coefficient, logP of the compound; type: physicochemical
Mus musculus [2] = assay: Anesthetic activity in mouse assessed as concentration required to induce hypnotic effect; type: functional
[3] = Toxicity in mouse assessed as lethal dose; conditions: in vivo
[4] = Therapeutic index, ratio of LD50 for toxicity in mouse to HD50 for anesthetic activity in mouse assessed as concentration required to induce hypnotic effect; conditions: read-out: TI
[5] = molecular target: GABA-A receptor; anion channel (Homo sapiens) (UniProt P14867+P47870+P18507+P28472+P48169+Q99928+Q9UN88+P34903+O00591+O14764+Q8N1C3+P18505+P78334+P47869+P31644+Q16445); assay: Inhibition of GABAA receptor (unknown origin) at 50 uM by radioligand receptor binding assay relative to control; type: protein-complex assay
Mus musculus [6] = assay: Anesthetic activity in mouse assessed as onset time; type: functional
Mus musculus [7] = assay: Anesthetic activity in mouse assessed as time duration of loss of righting reflex; type: functional
Mus musculus [8] = assay: Anesthetic activity in mouse assessed as time to walk; type: functional
Mus musculus [9] = assay: Anesthetic activity in mouse assessed as time to behavioral recovery; type: functional
Rattus norvegicus [10] = assay: Anesthetic activity in rat assessed as concentration required to induce hypnotic effect; type: functional
[11] = Toxicity in rat assessed as lethal dose; conditions: in vivo
[12] = Therapeutic index, ratio of LD50 for toxicity in rat to HD50 for anesthetic activity in rat assessed as concentration required to induce hypnotic effect; conditions: read-out: TI
Oryctolagus cuniculus [13] = assay: Anesthetic activity in rabbit assessed as concentration required to induce hypnotic effect; type: functional
[14] = Toxicity in rabbit assessed as lethal dose; set-up: species or system Oryctolagus cuniculus; conditions: in vivo
[15] = Therapeutic index, ratio of LD50 for toxicity in rabbit to HD50 for anesthetic activity in rabbit assessed as concentration required to induce hypnotic effect; conditions: read-out: TI
Rattus norvegicus [16] = assay: Anesthetic activity in rat assessed as onset time; type: functional
Rattus norvegicus [17] = assay: Anesthetic activity in rat assessed as time duration of loss of righting reflex; type: functional
Rattus norvegicus [18] = assay: Anesthetic activity in rat assessed as time to walk; type: functional
Rattus norvegicus [19] = assay: Anesthetic activity in rat assessed as time to behavioral recovery; type: functional
Oryctolagus cuniculus [20] = assay: Anesthetic activity in rabbit assessed as onset time; type: functional
Oryctolagus cuniculus [21] = assay: Anesthetic activity in rabbit assessed as time duration of loss of righting reflex; type: functional
Oryctolagus cuniculus [22] = assay: Anesthetic activity in rabbit assessed as time to walk; type: functional
[23] = n-octanol/water, read-out: logP

SMILES: COc1cc(CC(=O)OC(C)C)ccc1OCC(=O)N1CCN(C(=O)OC(C)(C)C)CC1
- logP [1, 23]: 1.8
- ED50 (Mus musculus [2]): 38.2 mg/kg
- LD50 [3]: 264 mg/kg
- selectivity ratio [4]: 6.9
- inhibition [5]: 69.7%

SMILES: CCCOC(=O)Cc1ccc(OCC(=O)N2CCNCC2)c(OCC)c1
- logP [1, 23]: 1.7
- ED50 (Mus musculus [2]): > 100 mg/kg
- inhibition [5]: 23.1%

SMILES: CCOC(=O)Cc1ccc(OCC(=O)N2CCNCC2)c(OC)c1
- logP [1, 23]: 1.5
- ED50 (Mus musculus [2]): > 100 mg/kg
- inhibition [5]: 44.5%

SMILES: CCOc1cc(CC(=O)OC(C)C)ccc1OCC(=O)N1CCN(C(=O)OC(C)(C)C)CC1
- logP [1, 23]: 2.1
- ED50 (Mus musculus [2]): 36.8 mg/kg
- LD50 [3]: 258 mg/kg
- selectivity ratio [4]: 7
- inhibition [5]: 29.3%

SMILES: CCOC(=O)Cc1ccc(OCC(=O)N2CCCC2)c(OC)c1
- logP [1, 23]: 1.3
- ED50 (Mus musculus [2]): 56.8 mg/kg
- inhibition [5]: 48.8%

SMILES: CCOC(=O)Cc1ccc(OCC(=O)N2CCOCC2)c(OCC)c1
- logP [1, 23]: 1.1
- ED50 (Mus musculus [2]): 35.5 mg/kg
- LD50 [3]: 227 mg/kg
- selectivity ratio [4]: 6.4
- Time (Mus musculus [6]): 7.6 s
- Time (Mus musculus [7]): 112.9 s
- Time (Mus musculus [8]): 39.8 s
- Time (Mus musculus [9]): 69.3 s
- ED50 (Rattus norvegicus [10]): 10.5 mg/kg
- LD50 [11]: 89.3 mg/kg
- selectivity ratio [12]: 8.5
- ED50 (Oryctolagus cuniculus [13]): 7.6 mg/kg
- LD50 [14]: 131 mg/kg
- selectivity ratio [15]: 17.3
- Time (Rattus norvegicus [16]): 8.7 s
- Time (Rattus norvegicus [17]): 78.9 s
- Time (Rattus norvegicus [18]): 25.8 s
- Time (Rattus norvegicus [19]): 65.8 s
- Time (Oryctolagus cuniculus [20]): 24.6 s
- Time (Oryctolagus cuniculus [21]): 197.2 s
- Time (Oryctolagus cuniculus [22]): 96.6 s
- inhibition [5]: 62.8%

SMILES: CCCOC(=O)Cc1ccc(OCC(=O)N2CCOCC2)c(OC)c1
- logP [1, 23]: 1.5
- ED50 (Mus musculus [2]): 52.9 mg/kg
- LD50 [3]: 339 mg/kg
- selectivity ratio [4]: 6.4
- inhibition [5]: 46.3%

SMILES: CCCOC(=O)Cc1ccc(OCC(=O)N2CCCC2)c(OC)c1
- logP [1, 23]: 1.8
- ED50 (Mus musculus [2]): 64.2 mg/kg
- inhibition [5]: 72.5%

SMILES: CCOc1cc(CC(=O)OCC(F)(F)F)ccc1OCC(=O)N(CC)CC
- logP [1, 23]: 2.6

SMILES: CCOc1cc(CC(=O)OC(C)C)ccc1OCC(=O)N1CCNCC1
- logP [1, 23]: 1.5
- ED50 (Mus musculus [2]): > 100 mg/kg
- inhibition [5]: 36.4%

SMILES: CCOc1cc(CC(=O)OC(C)C)ccc1OCC(=O)N1CCOCC1
- logP [1, 23]: 1.2
- ED50 (Mus musculus [2]): 30.8 mg/kg
- LD50 [3]: 200 mg/kg
- selectivity ratio [4]: 6.5
- Time (Mus musculus [6]): 7.5 s
- Time (Mus musculus [7]): 116.8 s
- Time (Mus musculus [8]): 54.9 s
- Time (Mus musculus [9]): 96.8 s
- ED50 (Rattus norvegicus [10]): 11.4 mg/kg
- LD50 [11]: 128 mg/kg
- selectivity ratio [12]: 11.2
- ED50 (Oryctolagus cuniculus [13]): 7.4 mg/kg
- LD50 [14]: 112 mg/kg
- selectivity ratio [15]: 15.2
- Time (Rattus norvegicus [16]): 11.1 s
- Time (Rattus norvegicus [17]): 84.6 s
- Time (Rattus norvegicus [18]): 32.6 s
- Time (Rattus norvegicus [19]): 61.7 s
- Time (Oryctolagus cuniculus [20]): 19.9 s
- Time (Oryctolagus cuniculus [21]): 188.6 s
- Time (Oryctolagus cuniculus [22]): 81.4 s
- inhibition [5]: 76.8%

SMILES: CCCOC(=O)Cc1ccc(OCC(=O)N2CCN(C(=O)OC(C)(C)C)CC2)c(OC)c1
- logP [1, 23]: 1.9
- ED50 (Mus musculus [2]): 43.6 mg/kg
- LD50 [3]: 340 mg/kg
- selectivity ratio [4]: 7.8
- inhibition [5]: 36.1%

SMILES: CCCOC(=O)Cc1ccc(OCC(=O)N(CC)CC)c(OC)c1 [PROPANIDID]
- ED50 (Mus musculus [2]): 20.9 mg/kg
- Time (Mus musculus [6]): 6.7 s
- Time (Mus musculus [7]): 89.6 s
- Time (Mus musculus [8]): 56.3 s
- Time (Mus musculus [9]): 83.9 s
- ED50 (Oryctolagus cuniculus [13]): 5.1 mg/kg
- Time (Rattus norvegicus [16]): 16.3 s
- Time (Rattus norvegicus [18]): 58.7 s
- Time (Rattus norvegicus [19]): 79.9 s
- Time (Oryctolagus cuniculus [20]): 22.6 s
- Time (Oryctolagus cuniculus [21]): 265.4 s
- Time (Oryctolagus cuniculus [22]): 124.5 s

SMILES: CCCOC(=O)Cc1ccc(OCC(=O)N2CCOCC2)c(OCC)c1
- logP [1, 23]: 1.4
- ED50 (Mus musculus [2]): 32.2 mg/kg
- LD50 [3]: 200 mg/kg
- selectivity ratio [4]: 6.2
- Time (Mus musculus [6]): 6.7 s
- Time (Mus musculus [7]): 104.8 s
- Time (Mus musculus [8]): 46.8 s
- Time (Mus musculus [9]): 89.6 s
- ED50 (Rattus norvegicus [10]): 12.2 mg/kg
- LD50 [11]: 123 mg/kg
- selectivity ratio [12]: 10.1
- ED50 (Oryctolagus cuniculus [13]): 6.5 mg/kg
- LD50 [14]: 108 mg/kg
- selectivity ratio [15]: 16.6
- Time (Rattus norvegicus [16]): 9.2 s
- Time (Rattus norvegicus [17]): 81.2 s
- Time (Rattus norvegicus [18]): 37.9 s
- Time (Rattus norvegicus [19]): 69.6 s
- Time (Oryctolagus cuniculus [20]): 21.3 s
- Time (Oryctolagus cuniculus [21]): 211.4 s
- Time (Oryctolagus cuniculus [22]): 79.6 s
- inhibition [5]: 64.3%

SMILES: COc1cc(CC(=O)OC(C)C)ccc1OCC(=O)N1CCCC1
- logP [1, 23]: 1.9
- ED50 (Mus musculus [2]): 59.9 mg/kg
- inhibition [5]: 55.6%

SMILES: CCCOC(=O)Cc1ccc(OCC(=O)N(CC)CC)c(OCC)c1 [AZD-3043]
- logP [1, 23]: 2.8
- ED50 (Mus musculus [2]): 17.6 mg/kg
- Time (Mus musculus [6]): 5.6 s
- Time (Mus musculus [7]): 63.8 s
- Time (Mus musculus [8]): 22.9 s
- Time (Mus musculus [9]): 89.6 s
- ED50 (Oryctolagus cuniculus [13]): 4.6 mg/kg
- Time (Rattus norvegicus [16]): 12.4 s
- Time (Rattus norvegicus [18]): 38.4 s
- Time (Rattus norvegicus [19]): 56.9 s
- Time (Oryctolagus cuniculus [20]): 19.8 s
- Time (Oryctolagus cuniculus [21]): 221.6 s
- Time (Oryctolagus cuniculus [22]): 89.6 s

SMILES: CCOC(=O)Cc1ccc(OCC(=O)N2CCNCC2)c(OCC)c1
- logP [1, 23]: 2
- ED50 (Mus musculus [2]): > 100 mg/kg
- inhibition [5]: 65.2%

SMILES: CCCOC(=O)Cc1ccc(OCC(=O)N2CCN(C(=O)OC(C)(C)C)CC2)c(OCC)c1
- logP [1, 23]: 2.3
- ED50 (Mus musculus [2]): 32.9 mg/kg
- LD50 [3]: 240 mg/kg
- selectivity ratio [4]: 7.3
- inhibition [5]: 33.4%

SMILES: CCOC(=O)Cc1ccc(OCC(=O)N2CCN(C(=O)OC(C)(C)C)CC2)c(OCC)c1
- logP [1, 23]: 1.8
- ED50 (Mus musculus [2]): 30.6 mg/kg
- LD50 [3]: 217 mg/kg
- selectivity ratio [4]: 7.1
- inhibition [5]: 45.2%

SMILES: CCOC(=O)Cc1ccc(OCC(=O)N2CCN(C(=O)OC(C)(C)C)CC2)c(OC)c1
- logP [1, 23]: 1.5
- ED50 (Mus musculus [2]): 35.2 mg/kg
- LD50 [3]: 257 mg/kg
- selectivity ratio [4]: 7.3
- inhibition [5]: 55.2%

SMILES: CCOC(=O)Cc1ccc(OCC(=O)N2CCCC2)c(OCC)c1
- logP [1, 23]: 2.1
- ED50 (Mus musculus [2]): 56 mg/kg
- inhibition [5]: 26.5%

SMILES: CCCOC(=O)Cc1ccc(OCC(=O)N2CCCC2)c(OCC)c1
- logP [1, 23]: 2.3
- ED50 (Mus musculus [2]): 60.8 mg/kg
- inhibition [5]: 47.8%

SMILES: CC(C)c1cccc(C(C)C)c1O [PROPOFOL]
- logP [1, 23]: 4.2
- ED50 (Mus musculus [2]): 11.9 mg/kg
- selectivity ratio [4]: 5.1
- Time (Mus musculus [6]): 8.1 s
- Time (Mus musculus [7]): 240.9 s
- Time (Mus musculus [8]): 46.5 s
- Time (Mus musculus [9]): 242.7 s
- ED50 (Oryctolagus cuniculus [13]): 3.7 mg/kg
- LD50 [14]: 20.2 mg/kg
- selectivity ratio [15]: 5.4
- Time (Rattus norvegicus [16]): 10.1 s
- Time (Rattus norvegicus [18]): 286.5 s
- Time (Rattus norvegicus [19]): 335.8 s
- Time (Oryctolagus cuniculus [20]): 21.7 s
- Time (Oryctolagus cuniculus [21]): 326.6 s
- Time (Oryctolagus cuniculus [22]): 425.3 s

SMILES: CCCOC(=O)Cc1ccc(OCC(=O)N2CCNCC2)c(OC)c1
- logP [1, 23]: 1.7
- ED50 (Mus musculus [2]): > 100 mg/kg
- inhibition [5]: 38.6%

SMILES: COc1cc(CC(=O)OC(C)C)ccc1OCC(=O)N1CCNCC1
- logP [1, 23]: 1.8
- ED50 (Mus musculus [2]): > 100 mg/kg
- inhibition [5]: 57.8%

SMILES: COc1cc(CC(=O)OC(C)C)ccc1OCC(=O)N1CCOCC1
- logP [1, 23]: 1.3
- ED50 (Mus musculus [2]): 46.8 mg/kg
- LD50 [3]: 276 mg/kg
- selectivity ratio [4]: 5.9
- inhibition [5]: 35.7%

SMILES: CCOC(=O)Cc1ccc(OCC(=O)N2CCOCC2)c(OC)c1
- logP [1, 23]: 1.4
- ED50 (Mus musculus [2]): 44.8 mg/kg
- LD50 [3]: 278 mg/kg
- selectivity ratio [4]: 6.2
- inhibition [5]: 52.9%

SMILES: CCOC(=O)Cc1cc(OCC)c(OCC(=O)N(CC)CC)cc1F
- logP ([1]; octanol/water): 2.1
